Test results published in US4756710A, “pH-Mediated drug delivery system” (Merck & Co., Inc., priority 1986, dated 1988).
Converted amounts (≈) assume the structure as drawn. Where a name gives a salt, the structure may show the parent alone. Read-outs that look alike come from different tables or passages of the source. One block for each compound: values may come before it.

Tests used:
[1] = from equation (1); 30 percent ethanol/water; polyurethane membrane 0.0038 cm
[2] = in water at 25° C.; reported; cited from earlier work
[3] = Solubility in mineral oil; format: physicochemical
[4] = Solubility of timolol maleate in pH controlled glycol reservoir vehicles; format: physicochemical
[5] = format: physicochemical; settings: not told
Method: Several pH controlled reservoir systems were prepared in a similar manner employing non-aqueous or aqueous glycol vehicles and different buffering agents. For this example, sorbitol USP and 70 percent aqueous propylene glycol were employed. The pH was adjusted with either Na2 HPO4 or Na2 CO3. pH measurements were made on a pH meter with a standard glass electrode and the flux determined in a diffusion cell employing a mineral oil soaked Celgard membrane to separate the buffered reservoir from the receptor phase.

[6] = Description: The following operation illustrates with timolol the relationship among pH, the concentration C, of the timolol base in solution in the reservoir, and the flux calculated from the data as well as the observed flux obtained by placing the compositions behind the selected membrane in a diffusion cell and measuring the rate of release into an isotonic phosphate buffer of pH 7.4.
As a first step in determining the relationship between pH, concentration of timolol, its pK and the pH of the reservoir, an aqueous solution of 7.0 mg/ml of timolol was placed in a diffusion measuring cell fitted with a 1.5 mil (0.0038 cm) thick silicone membrane and the transport of timolol from the reservoir of the test cell to an isotonic pH 7.4 receptor phase was measured over a period of about eight hours by sampling the solution in the receptor phase, assaying this solution for drug by direct ultraviolet assay method and calculating the drug concentration over time, thereafter plotting the drug diffused per square centimeter versus time and calculating the regression line.
From the calculated concentration of the timolol base, the previously determined values for D and K and the known thickness of the membrane, the steady state flux was calculated (equation (1)). Thereafter, the steady state flux was determined experimentally by measuring the transport of timolol at each pH from the buffer system into an isotonic receptor phase through the silicone membrane.

[7] = Concentration of timolol base in aqueous buffer solutions calculated with the Henderson-Hasselbalch equation; format: physicochemical; settings: pH 9.0; 15 mg/ml timolol maleate in aqueous buffer
Description: where T is the time lag. Thus, after determining T, D may be calculated. By experimentally determining flux, and substituting in equation (1), K may be obtained. Having thus determined K and D, the desired flux may be achieved by making appropriate modifications of the pH, thereby the concentration, and/or the thickness of the membrane. The appropriate modifications in pH may be arrived at by preparing a series of buffer solutions containing a known quantity of the salt form of drug at various pH values and substituting in the Henderson-Hasselbalch equation, [formula] C, the concentration of the unionized form, may be calculated.

product KD [1]: 9.38×10^-4 cm^2 /hr
SMILES: CC1=C(CC(=O)O)c2cc(F)ccc2/C1=C\c1ccc([S+](C)[O-])cc1 (centres unmarked) [sulindac]
pKa [2]: 4.7

SMILES: CC(C)(C)NC[C@H](O)COc1nsnc1N1CCOCC1 [timolol maleate]
solubility in mineral oil [3]: substantially insoluble
solubility ([4]; 70% propylene glycol + na2co3, organic solvent or mixture, 70% Propylene glycol +Na2 CO3, apparent pH 7.6): 124 mg/mL
solubility ([4]; sorbitol usp + na2co3, Sorbitol USP +Na2 CO3, apparent pH 9.6): 0.7 mg/mL
solubility ([4]; sorbitol usp + na2hpo4, Sorbitol USP +Na2 HPO4, apparent pH 6.9): 17.2 mg/mL
Jobs (flux) ([5]; pH 6.9): 6.7 mcg/cm^2 /hr
Jobs (flux) ([5]; pH 7.6): 7.4 mcg/cm^2 /hr
Jobs (flux) ([5]; pH 9.6): 2.8 mcg/cm^2 /hr

SMILES: CC(C)(C)NC[C@H](O)COc1nsnc1N1CCOCC1 [timolol]
partition coefficient between drug reservoir and membrane, K [6]: 2.05
time lag, T ([6]; aqueous solution of 7.0 mg/ml timolol, 1.5 mil silicone membrane, plot extrapolated to time axis): 0.0096 h
drug diffusion coefficient in the membrane, D ([6]; silicone membrane, from equations (1) and (2)): 2.5×10^-4 cm^2 /hr
Cs Timolol Base [7]: 4210 µg/mL
solubility ([3]; organic solvent or mixture, 32° C.): ~7 mg/mL (≈ 22.1 mM)
